Experimental data from patent publication US20170258871A1, “COMBINED USE OF A TRKA INHIBITOR AND AN EPHA2 INHIBITOR FOR USING IN THE TREATMENT OF SOLID CANCERS, AND METHOD FOR THE PROGNOSIS OF SURVIVAL OF A PATIENT WHO HAS A SOLID CANCER” (UNIVERSITE DES SCIENCES ET TECHNOLOGIES DE LILLE, priority 2014, published 2017).

Assays:
FaDu cells = experiment: In vitro invasion test (Boyden chamber), FaDu; format: cell-based; conditions: NGF 16 nM or proNGF N.C. 0.5 nM, untreated cells = 100%
Description: (§1) (0.5 nM) for a period of 20 hours. The untreated cells represent the control and determine a base invasion of 100%.
(§2) The Boyden Chambers (Transwell®; BD Biosciences; France) were recovered from a biological matrix (type 1 collagen from rats diluted to 400 μg·mL-1 in EMEM-0.1% FCS medium; Millipore). The cells were then seeded with 100,000 cells/well on PET membranes (polyethylene terephtalate; dia.: 10.5 mm; porosity: 8 μm) of Boyden Chambers and held in an EMEM-0.1% FCS medium. […] (0.5 nM) in the lower part. After 20 hours of culture, they were washed twice with PBS 1× and fixed (ice cold methanol; 15 min; −20° C.). The non-invasive cells (upper face of the Transwell®) were eliminated by scraping. The number of cells was estimated after staining with Hoechst 33 258 (1 mM; 30 min; 20° C.) by counting the nuclei thereof using fluorescence microscopy on a total of 5 five randomly chosen fields (lens 10×; λ-excitation: 345 nm; λ-emission: 478 nm; Eclipse Ti) using the ImageJ software. Each experiment was performed in triplicate. Statistical analysis of the results was performed by analysis of variance ANOVA (Bonferroni post-hoc test).

CAL27 cells = experiment: In vitro invasion test (Boyden chamber), CAL 27; format: cell-based; conditions: NGF 16 nM or proNGF N.C. 0.5 nM, untreated cells = 100%
Description: as §1, §2

SQ20B cells = experiment: In vitro invasion test (Boyden chamber), SQ20B; format: cell-based; conditions: NGF 16 nM or proNGF N.C. 0.5 nM, untreated cells = 100%
Description: as §1, §2

[1] = test system: MDA-MB-231 HA-TrkA tumours; experiment: Xenograft of MDA-MB-231 HA-TrkA in SCID mice, survival (Experiment 2); format: in vivo; conditions: 5 injections (D14-D26), siRNA 7.5 microg/mouse close to the tumour; control 40 days; log-rank P=0.0022
Description: FIG. 9: A study of the inhibition of TrkA and EphA2 on tumour development in vivo. […] The experiments were stopped 31 days after the first injection of the treatment for ethical considerations after the death of the control mice. A) The tumour volumes were evaluated by measuring the length (;) and the width (w) and then calculating the volume using the formula π/6×l×W×(l+w)/2; the Mann and Whitney test was carried out between the control group and CEP-701 (a), between the control groups and siEphA2 (b), between the control groups and CEP-701+siEphA2 (c), and between the groups siEphA2 and CEP-701+siEphA2 (d)*, P<0.05; **, P<0.01; ns: not significant. B) Study of the inhibition of the expression of receptors by siRNA on the overall survival of SCID mice. The tumours were developed without any intervention for 14 days and were then subjected to 5 injections (D14, DI7, D20, D23, D26) of SiTrkA (7.5 microg/mouse), siEphA2 (7.5 microg/mouse), siTrkA (7.5 microg/mouse) and siEphA2 (7.5 microg/mouse). […] The tumour volumes were evaluated by measuring the length (l) and width (w) and then calculating the volume using the formula π/6×l×W×(l+w)/2. […] Significance was measured using the log-rank test (P=0.0022). […]
Experiment 2: The mice used were six-week old SCID females. […] The tumour volume was measured according to the following formula: π/6×length×width×(width+length)/2. […]

EphA2 = experiment: Western blot of EphA2 expression after siRNA; format: cell-based; conditions: MDA-MB-231 HA-TrkA transfected with siEphA2
Description: D. Cells MDA-MB-231 HA-TrkA were transfected with siEphA2 and then treated with proNGF N.C. (30 min). The recruitment of the sortilin and EphA2 was determined after anti-HA immunoprecipitation.
The sequences of siRNA used against EphA2 (siEphA2) at 100 pmol for each transfection, and against TrkA (pool of 3 siTrkA 1, 2 and 3) are given in table 1. The transfections of siRNA are produced by means of […]in™ according to the manufacturers instructions (POL409-10, Polyplus transfection, Ozyme, Saint Quentin en Yvelines, France).
After treatment, the cells were lysed (lysis buffer: 40 mM HEPES pH 7.5; 1 mM EDTA pH 8.0; 120 mM NaCl; 10 mM NaPPi; 50 mM NaF; 1.5 mM Na3VO4; 1% Triton X 100; 0.1% SDS; 1 mM PMSF; 10% glycerol and 1/100 th of protease inhibitor cocktail (Sigma) (20 min; 4° C.)). The lysates were recovered and clarified by centrifugation (12,000 g; 10 min; 4° C.). The supernatant was then stored at −80° C. until use. The protein extracts were diluted to 2 μg·μL−1 in a Laemmli 1× buffer (7 min; 100° C.) then deposited and separated on SDS-PAGE (concentration gel 3.6% acrylamide and separation gel 7.5% to 10% acrylamide (thickness 1 mm); 180 V; 10 min then 200 V constant; until output of the migration front). […] The membranes were placed in an image analyser (LAS 4000; Fuji) connected to a computer which allowed image generation (software Image Reader LAS 4000). […]

| Substance | cell invasion under growth factor (FaDu cells) | cell invasion under growth factor (CAL27 cells) | cell invasion under growth factor (SQ20B cells) | median survival [1] | expression of EphA2 protein (EphA2) |
| --- | --- | --- | --- | --- | --- |
| NGF: Nerve Growth Factor; recombinant human β NGF supplied by Scil Proteins | did not respond | did not respond | induced | – | – |
| siEphA2: siRNA against EphA2, GCAAGGAAGUGGUACUGCUGGACUU (SEQ ID NO: 1) (listed as RNA, chemistry not given here) | – | – | – | 49 days | completely abolished the expression |
